In data set [1] the test system is Human breast cancer cells T47D. Put plainly: In vitro antitumor activity test (MTT), T47D. The data set is classed as cell-based. Particulars: 4 days culture with drug, growth inhibition, read-out: IC50 (μmol/L) T47D. The method, then: (§1) In Vitro Antitumor Activity Test
(§2) Cells were taken out carefully from liquid nitrogen (Frozen pipes), and the cell freezing medium was thawed rapidly in water bath at 37° C. in order to rapidly pass the temperature range of 0˜5° C. within which the cell is easily damaged. Cell suspension was sucked with pipette gun and put it into centrifuge tubes under a sterile condition, then centrifuged for 3 min at 1300 r/min. The supernatant was gently discarded, and then added with a fresh medium to pipette and mix the cells. Finally, the cells were transferred into culture flasks and cultured in a carbon dioxide incubator. The medium was changed once after 24 h.
(§3) Human prostate cancer cells (DU145, PC-3) were cultured in RPMI1640 medium containing 10% fetal bovine serum inactivated by heating, 100 IU/mL penicillin, 100 μg/mL streptomycin and 1 mmol/L L-glutamine. Human breast cancer cells (T47D, MDA-MB231) were cultured in RPMI1640 medium containing 10% fetal bovine serum inactivated by heating, 5 μg/mL insulin, 100 IU/mL penicillin, 100 μg/mL streptomycin, and 1 mmol/L L-glutamine. Human breast cancer cells (MCF-7) were cultured in DMEM culture medium containing 10% fetal bovine serum inactivated by heating, 5 μg/mL insulin, 100 IU/mL penicillin, 100 μg/mL streptomycin and […] L-glutamine. Mouse Lewis lung carcinoma cells (LL/2) and mouse melanoma cells (B16F0) were cultured in DMEM culture medium containing 10% fetal bovine serum inactivated by heating, 4.5 g/L glucose, 1.5 g/L NaHCO3, 100 IU/mL penicillin, 100 μg/mL streptomycin and 4 mmol/L L-glutamine. All of the above cell lines were incubated in 37° C. incubator with 5% carbon dioxide saturated humidity
(§4) After 2-3 cycles of cell culture and passage after the cell thawing, the cells were stable and ready for the experiment. The flask bottom should be covered with cells in each cell passage.
(§5) Trypsin solution (0.25%) was applied to digest the cells off the flask bottom when the flask bottom was covered with cells. The digested cell solution was moved to the centrifuge tubes and culture medium was added to stop the digestion; centrifuged for 3 min at 1300 r/min conditions; gently discarded the supernatant, and then added 5 mL medium, pipetted and mixed the cells; added 10 μL of the cell suspension to the cell count plate to count; adjusted the cell concentration to 2×10^4/mL; added 100 μL cell suspension to all wells of the 96 well plate except A1 well which acts as a blank; and placed the 96 well plate in an incubator to culture 24 h and to make sure the cells growing and attached on the wells.
(§6) First formulated the medicine in 16 mmol/L of DMSO storage solution; then diluted the solution with ethanol to 1.6 mmol/L solution; then further diluted with cell culture medium to 32 μmol/L, 16 μmol/L, 8 μmol/L, 4 μmol/L, 2 μmol/L and 1 μmol/L, and added to 96 well plate; 100 μl drug solution were added to each well, thus the final drug concentrations of cells were 16 μmol/L, 8 μmol/L, 4 μmol/L, 2 μmol/L, 1 μmol/L, and 0.5 μmol/L; 3 parallel wells were set for each concentration and placed the 96 well plate was placed into an incubator to continuously culture for 4 days
(§7) Added to each well of the 96 well plate with 50 μL of MTT (2 mg/mL); discarded the MTT (tetrazolium) solution after 4 h incubation in an incubator, then added 200 μL of DMSO; shaking the 96 well plate in a magnetic shaker for 10 min to make sure that the reaction product of the living cells and the MTT, i.e. formazan, was fully dissolved; measured the absorbance value (OD) in microplate reader at the selected 570 nm wavelength, and recorded results. Using the OD values of the cells that were not added with drugs as control, the cell growth inhibition ratio at each test concentration was calculated by using the following formula. Herein, the cancer cell growth inhibition is expressed as the half of the growth inhibitory concentration (IG50 Value) (i.e., the tested drug concentration resulting in 50% cell growth inhibition). […]

Data set [2] relates to Human breast cancer cells MDA-MB231. Description: In vitro antitumor activity test (MTT), MDA-MB231. The data set is classed as cell-based. Conditions: 4 days culture with drug, growth inhibition, read-out: IC50 (μmol/L) MDA-MB231. Here is the method:
as §1, §2, §3, §4, §5, §6, §7

The test system of data set [3] is Human prostate cancer cells PC-3. Description: In vitro antitumor activity test (MTT), PC-3. The class given is cell-based. Particulars: 96 h, PC-3 cells, 4 days culture with drug, growth inhibition, read-out: IC50 (μmol/L) PC-3. Here is the method: as §1
as §2, with “h. […]” for “h.”
(§8) After 2-3 cycles of cell culture and passage after the cell thawing, the cells were stable and ready for the experiment. […]
(§9) Added to each well of the 96 well plate with 50 μL of MTT (2 mg/mL); discarded the MTT (tetrazolium) solution after 4 h incubation in an incubator, then added 200 μL of DMSO; shaking the 96 well plate in a magnetic shaker for 10 min to make sure that the reaction product of the living cells and the MTT, i.e. formazan, was fully dissolved; measured the absorbance value (OD) in microplate reader at the selected 570 nm wavelength, and recorded results. […]

Data set [4] deals with Human breast cancer cells MCF-7. Description: In vitro antitumor activity test (MTT), MCF-7. Particulars: MCF7, 96 h, MCF-7 cells, 4 days culture with drug, growth inhibition, read-out: IC50 (μmol/L) MCF-7. The data set is classed as cell-based. Here is the method:
as §1
as §2, with “h. […]” for “h.”
as §8, §9

The subject of data set [5] is Human prostate cancer cells DU145. Put plainly: In vitro antitumor activity test (MTT), DU145. The data set is classed as cell-based. Particulars: DU-145, 96 h, 4 days culture with drug, growth inhibition, read-out: IC50 (μmol/L) DU145. Here is the method: as §1
as §2, with “h. […]” for “h.”
as §8, §9

Data set [6] has as its system Mouse Lewis lung carcinoma cells (LL/2). Put plainly: In vitro antitumor activity test (MTT), LL/2. The class given is cell-based. Particulars: 96 h, LL/2 cells, 4 days culture with drug, growth inhibition, read-out: IC50 (μmol/L) LL/2. The method, then: as §1
as §2, with “h. […]” for “h.”
as §8, §9

In data set [7] the test system is mouse melanoma cells (B16F0). Description: In vitro antitumor activity test (MTT), B16F0. The class given is cell-based. Conditions: B16F0, 96 h, B16FD cells (head), 4 days culture with drug, growth inhibition, read-out: IC50 (μmol/L) B16FD. Here is the method:
as §1
as §2, with “h. […]” for “h.”
as §8, §9

A further data set in a line: Acute toxicity test. Conditions: both sexes, mouse, in vivo, ip; Kunming mice, intraperitoneal injection, observed one week after administration, weighted regression method. The method, then: Animals: healthy Kunming mice, half male and half female, weighed 18-22 g. Animals were provided from Experimental Animal Center of Shenyang Pharmaceutical University. Certificate of Conformity: Real co-Zi Liao No. 033
Name of tested drugs: Example 13, Example 14
Drug preparation: Suspension formulated with 0.2% polysorbate 80 (Tween-80). Dosage to subject is expressed as mg/kg.
Route of administration: Intraperitoneal injection; injection volume was 0.1 ml/10 g, with one time multi-dose administration.
Test cycle and measurement: Observed one week after the administration; recorded toxic reactions in mice daily during observation, with the death of mice as the main indicator. Half lethal dose (LD50, mg/kg) of the administration of compound after a week can be obtained according to weighted regression method.

pIC50: −log10 of the molar value. Read-outs that look alike come from different tables or passages of the source.

For the compound `C=C1CCC(=Cc2ccccc2OC)C1=O` [Example 7, 2-methylene-5-(2-methoxybenzylidene)cyclopentanone], the pIC50 in data set [1] (Homo sapiens, 96 h) was 5.41; in data set [2] (Homo sapiens, MDA-MB-231, 96 h) it was 4.94.
Consider `C=C1CCC(=Cc2ccc(OC)c(OC)c2)C1=O` [Example 17, 2-methylene-5-(3,4-dimethoxybenzylidene)cyclopentanone], for which the pIC50 in data set [1] (Homo sapiens, 96 h) was 5.58; in data set [2] (Homo sapiens, MDA-MB-231, 96 h) it was 5.59.
As a reminder, the LD50 is the dose at which mortality reaches 50%. Take `C=C1CCC(=Cc2ccc(O)c(OC)c2)C1=O` [Example 14, 2-methylene-5-(4-hydroxy-3-methoxybenzylidene)cyclopentanone]: the pIC50 in data set [1] (Homo sapiens, 96 h) was 6.01; in data set [2] (Homo sapiens, MDA-MB-231, 96 h), 5.49; in data set [3] it was 5.75; in data set [4], 5.98; in data set [5], 5.61; in data set [6] it was 5.19. The pIC50 in data set [7] was 5.36. This compound returned an LD50 at 1 week in “Acute toxicity test” of 35.2 mg/kg.
As to `C=C1CCC(=Cc2cccc(OC)c2OC)C1=O` [Example 15, 2-methylene-5-(2,3-dimethoxybenzylidene)cyclopentanone], the pIC50 in data set [1] (Homo sapiens, 96 h) was < 4.80; in data set [2] (Homo sapiens, MDA-MB-231, 96 h), < 4.80.
In the case of `C=C1CCC(=C(c2ccc(F)cc2)c2ccc(F)cc2)C1=O` [Example 27, 2-methene-5-[bis(4-fluorophenyl)-methylene]cyclopentanone], the pIC50 in data set [2] is < 4.80.
Regarding `C=C1CCC(=Cc2ccc(OC)cc2OC)C1=O` [Example 16, 2-methylene-5-(2,4-dimethoxybenzylidene)cyclopentanone], the pIC50 is < 4.80 in data set [1] (Homo sapiens, 96 h) and 5.12 in data set [2] (Homo sapiens, MDA-MB-231, 96 h).
Consider `C=C1CCC(=Cc2ccc(OCC)cc2)C1=O` [Example 8, 2-methylene-5-(4-ethoxybenzylidene)cyclopentanone], for which the pIC50 is 5.20 in data set [1] (Homo sapiens, 96 h) and 5.34 in data set [2] (Homo sapiens, MDA-MB-231, 96 h).
Consider `C=C1CCC(=Cc2ccc3c(c2)OCO3)C1=O` [Example 18, 2-methylene-5-(3,4-methylenedioxybenzylidene)cyclopentanone], for which the pIC50 in data set [1] (Homo sapiens, 96 h) is 5.31; in data set [2] (Homo sapiens, MDA-MB-231, 96 h), 5.18.
On to `C=C1CCC(=Cc2cc(OC)c(O)c(OC)c2)C1=O` [Example 19, 2-methylene-5-(3,5-dimethoxy-4-hydroxybenzylidene) cyclopentanone], for which the pIC50 in data set [1] (Homo sapiens, 96 h) is 5.55; in data set [2] (Homo sapiens, MDA-MB-231, 96 h) it was 5.46.
For `C=C1CCC(=C(c2ccc(C)cc2)c2ccc(C)cc2)C1=O` [Example 26, 2-methylene-5-[bis(4-methylphenyl)-methylene]cyclopentanone], the pIC50 in data set [1] (Homo sapiens, 96 h) was 5.36; in data set [2] (Homo sapiens, MDA-MB-231, 96 h), 5.13.
Take `C=C1CCC(=CCC(C)C)C1=O` [Example 22, 2-methylene-5-(3-methylbutylidene)cyclopentanone]: the pIC50 in data set [1] (Homo sapiens, 96 h) was < 4.80; in data set [2] (Homo sapiens, MDA-MB-231, 96 h) it was < 4.80.
For `C=C1CCC(=Cc2ccc(O)cc2)C1=O` [Example 23, 2-methylene-5-(4-hydroxybenzylidene)cyclopentanone], the pIC50 in data set [1] (Homo sapiens, 96 h) is < 4.80; in data set [2] (Homo sapiens, MDA-MB-231, 96 h) it was 5.22.
For `C=C1CCC(=Cc2ccc(OCCC)cc2)C1=O` [Example 9, 2-methylene-5-(4-propoxybenzylidene)cyclopentanone], in that order: < 4.80 and < 4.80.
Take `C=C1CCC(=Cc2ccc(OC)c(O)c2)C1=O` [Example 13, 2-methylene-5-(3-hydroxy-4-methoxybenzylidene)cyclopentanone]: the pIC50 was 6.19 in data set [1] (Homo sapiens, 96 h); 5.60 in data set [2] (Homo sapiens, MDA-MB-231, 96 h); 5.70 in data set [3]; 5.92 in data set [4]; 5.53 in data set [5]; 5.29 in data set [6]. The pIC50 in data set [7] is 5.47. The same compound returned an LD50 at 1 week in “Acute toxicity test” of 22.4 mg/kg.
On to `C=C1CCC(=Cc2ccc(OC)cc2)C1=O` [Example 2, 2-methylene-5-(4-methoxybenzylidene)-cyclopentanone], for which the pIC50 is < 4.80 in data set [1] (Homo sapiens, 96 h) and < 4.80 in data set [2] (Homo sapiens, MDA-MB-231, 96 h).
Take `C=C1CCC(=C(c2ccccc2)c2ccccc2)C1=O` [Example 25, 2-methylene-5-diphenylmethylenecyclopentanone]: the pIC50 in data set [1] (Homo sapiens, 96 h) is 5.14; in data set [2] (Homo sapiens, MDA-MB-231, 96 h), < 4.80.
Regarding `C=C1CCC(=Cc2ccc(S(C)(=O)=O)cc2)C1=O` [Example 10, 2-methylene-5-(4-methanesulfonylbenzylidene)cyclopentanone], the pIC50 in data set [1] (Homo sapiens, 96 h) was 5.79; in data set [2] (Homo sapiens, MDA-MB-231, 96 h), 5.30.
Consider `C=C1CCC(=Cc2ccc(N(C)C)cc2)C1=O` [Example 11, 2-methylene-5-(4-N,N-dimethylbenzylidene)cyclopentanone], for which the results for the pIC50 in data set [1] and in data set [2] were 5.85 and 5.07, respectively.
As for `C=C1CCC(=Cc2ccccc2O)C1=O` [Example 24, 2-methylene-5-(2-hydroxybenzylidene)cyclopentanone], the pIC50 is 5.30 in data set [1] (Homo sapiens, 96 h) and 5.26 in data set [2] (Homo sapiens, MDA-MB-231, 96 h).
For the compound `C=C1CCC(=Cc2ccc(OC)cc2O)C1=O` [Example 12, 2-methylene-5-(2-hydroxy-4-methoxybenzylidene)cyclopentanone], the pIC50 in data set [1] (Homo sapiens, 96 h) is 5.89; in data set [2] (Homo sapiens, MDA-MB-231, 96 h), 5.33.
For `C=C1CCC(=Cc2cc(C(C)(C)C)c(O)c(C(C)(C)C)c2)C1=O` [Example 20, 2-methylene-5-[3,5-di(t-butyl)-4-hydroxybenzylidene]-cyclopentanone], in that order: 5.27 and 4.83.
In the case of `C=C1CCC(=Cc2cc(OC)c(OC)c(OC)c2)C1=O` [Example 21, 2-methylene-5-(3,4,5-trimethoxybenzylidene)cyclopentanone], the pIC50 in data set [1] (Homo sapiens, 96 h) was 5.56; in data set [2] (Homo sapiens, MDA-MB-231, 96 h) it was 5.11.

These data come from patent US8415505B2, “2-methylene-5-substituted-methylenecyclopentanone derivatives and use thereof” (Shenyang Pharmaceutical University, priority 2008, dated 2013).
